Data as given in the pKa sets of Baltruschat and Czodrowski (2020).
Where a SMILES comes first, the peptide text is derived from it.

Conditions: acidic group

Row | SMILES | pKa
1 | O=C([O-])C[NH+](CC(=O)[O-])Cc1cc([N+](=O)[O-])ccc1O | 6.18
2 | CNc1cc[nH+]c(S)n1 | 3.09
3 | Cc1cccc(O)c1O | 9.28
4 | O=C1COC(=O)C1I (configuration not stated) | 2.31
5 | N#CC(=C(O)O)c1ccccc1 | 0.99
6 | O=[PH](O)c1ccccc1 | 1.63
7 | CC(=O)C(C)[N+](=O)[O-] (configuration not stated) | 5.15
8 | CC(C)(C)OOCCC(=O)O | 4.36
9 | CCc1cc(C(C)C)c(O)cc1C | 10.9
10 | C[N+](C)(C)O | 4.65
11 | NS(=O)(=O)c1ccc(P(=O)([O-])[O-])cc1 | 10
12 | O=C(O)c1cccc([N+](=O)[O-])c1 | 3.47
13 | CCC1C(=O)C=C(C)OC1=O (configuration not stated) | 5.3
14 | Cc1ccc(C(=O)C(=O)O)cc1C | 1.36
15 | Cc1nnc(C)n1N | 9.85
16 | Cc1cc(C#N)cc(C)[n+]1O | -0.61
17 | O=C(NOC(=O)c1ccccc1)c1ccccc1 | 6
18 | O=C1O[C@@H]([C@@H](O)CO)C(O)=C1O | 4.16
19 | COC(=O)c1ccc(NC=S)cc1 | 10.9
20 | C[Si](C)(CCCCl)CCCC(=O)O | 4.98
21 | CN(C)Cc1cc(OCc2ccccc2)ccc1O | 11.5
22 | CC1CCCC(C(=O)O)c2nnnn21 (configuration not stated) | 3.3
23 | Oc1ccc(Cl)cc1 | 9.29
24 | O=C([O-])[C@@H](P)CC[C@H](P)C(=O)O | 4.41
25 | Cc1ccc(C)c(O)c1 | 10.4

Row | SMILES | pKa
26 | Cn1nnc(CC(=O)O)n1 | 3.44
27 | Oc1ccc2cccnc2c1 | 8.85
28 | [NH3+]C1(C(=O)O)CCCCC1 | 2.66
29 | C[n+]1ccccc1O | 0.32
30 | Oc1ccc(O)cc1 | 9.93
31 | Cc1cc(C(C)C)ccc1O | 10.6
32 | O=[N+]([O-])c1ccc(O)c(C[NH+]2CCOCCOCCOCCOCC2)c1 | 5.79
33 | CC(C)C[C@H]([NH3+])C(=O)N[C@@H](Cc1c[nH]c[nH+]1)C(=O)O | 2.76
34 | COc1ccc(O)c(=O)cc1 | 7.75
35 | Cc1cc(C)c(C)c(O)c1 | 10.6
36 | C[NH2+]CC(=O)c1ccc(O)cc1 | 7.7
37 | Cc1ccc(S(=O)(=O)NCC[NH+](CC(=O)[O-])CC(=O)[O-])cc1 | 7.86
38 | CCOC(=O)C(=NO)C(=O)OCC | 5.48
39 | [O-]c1[nH+]c(O)c(Br)c[n+]1[C@H]1O[C@@H](CO)[C@H](O)[C@@H]1O | -0.9
40 | CNC(=O)c1ccccc1O | 8.03
41 | Cc1cc(O)c(=O)ccc1Br | 6.6
42 | [O-][n+]1cnc2[nH]cnc2c1NCc1ccccc1 | 8.22
43 | Cc1cc(C(C)(C)C)c(O)c(C(C)(C)C)c1 | 12.6
44 | N#Cc1c(-c2nc3cc(Cl)ccc3o2)c(=O)oc2cc(O)ccc12 | 6
45 | CC(C)c1ccc(C(=O)/C=C/C(=O)O)cc1 | 3.4
46 | Cc1cccc(S(=O)(=O)O)c1 | -6.56
47 | CC(=O)c1cccc(=O)c(O)c1 | 6.16
48 | C[N+](C)(C)NC(=O)c1ccc([N+](=O)[O-])cc1 | 3.11
49 | O=C([O-])c1cc2ccccc2cc1O | 12.2
50 | Cc1cc(O)n(-c2ccccc2)n1 | 11.3

Row | SMILES | pKa
51 | CC(=O)C(=NO)C(C)=O | 7.44
52 | O=[Se](O)c1ccc(-c2ccccc2)cc1 | 4.53
53 | Cc1ccc(O)cc1[S+](C)C | 8.01
54 | CC(=O)c1cccc(C(=O)O)c1 | 3.84
55 | Nc1ccc(S(=O)(=O)Nc2ncc[nH]2)cc1 | 9.72
56 | CC(=O)c1cccc(NS(=O)(=O)C(F)(F)F)c1 | 3.75
57 | CC[NH2+]C(C)C(=O)O (configuration not stated) | 2.22
58 | C[N+](C)(C)NC(=O)c1cccc([N+](=O)[O-])c1 | 3.16
59 | CCOC(=O)/C=C(/C)O | 9.51
60 | O=S(Cc1ccccc1)c1ncc[nH]1 (configuration not stated) | 9.8
61 | CO[n+]1ccc(O)cc1 | 2.57
62 | O=C(O)c1cc([N+](=O)[O-])ccc1CO | 3.14
63 | Cc1ccc(C(O)C(C(=O)O)c2ccc(C3CCCCC3)cc2)cc1 (configuration not stated) | 4.18
64 | CC1NCCc2c1[nH]c1ccc(N)cc21 (configuration not stated) | 16
65 | CC(=N\[O-])/C(C)=N/O | 11.9
66 | C[N+](C)(C)CCc1cccc(O)c1 | 9.43
67 | [NH3+][C@@H](Cc1[nH+]c[nH]c1I)C(=O)O | 1.65
68 | N#CC(C#N)=C(C#N)C(C#N)C#N | 1.9
69 | Nc1c2[n-]cnc2nc[n+]1[O-] | 13
70 | [NH3+]C(Cc1ccccc1)C(=O)O (configuration not stated) | 2.3
71 | O=C(/C=N/O)c1ccccc1 | 8.31
72 | [NH3+]C/C=C\C(=O)O | 3.53
73 | Nc1ncnc2[nH]ncc12 | 10.8
74 | CS(=O)(=O)c1ccc(S(=O)(=O)NCc2ccccc2)cc1 | 10.2
75 | O=C(O)c1cc[nH+]cc1 | 1.71

Same assay, conditions: basic group

Row | SMILES | pKa
76 | Cc1nn(C)c(C)c1Cl | 1.96
77 | Cn1cncc1C[C@H](NC(=O)CC[NH3+])C(=O)[O-] | 7.08
78 | CC(C)CCNCCC(C)C | 10.9
79 | COc1cccc(C(=O)N[C@H]2C[C@H]3CC[C@@H](C2)N3Cc2ccccc2)c1OC | 8.91
80 | CN[C@H]1C(C)[C@@H]1NC (some centres not stated) | 9.03
81 | CCCCc1cccnn1 | 3.49
82 | CC(N)=S | -2.51
83 | CCOC(=O)c1cnc(N)s1 | 3.04
84 | Cc1ccnc(N)n1 | 4.2
85 | O=C([O-])c1ccc2ncccc2c1 | 4.82
86 | CC1CCCC/C1=N\CC(=O)[O-] (configuration not stated) | 9.64
87 | CNCc1ccccn1 | 8.96
88 | C#CC(C)(C(C)C)N(C)C(C)C (configuration not stated) | 8.7
89 | CC(O)CN(CCN1CCOCC1)CC(C)O (configuration not stated) | 7.9
90 | CCOC(=O)C1CC2CCN1CC2 (configuration not stated) | 8.8
91 | C[C@@H](O)[C@H](CCC=O)O[C@H]1O[C@H](C)[C@@H](N(C)C)[C@H](O)[C@H]1O | 7
92 | [NH3+]CCCc1ccncc1 | 5.51
93 | CCOC(=O)[C@H](C)N | 7.8
94 | CCNc1ccnc([S-])n1 | 11.1
95 | COc1cc(C)nc(NN)n1 | 6.2
96 | CCCCC/C(N)=N/N(C)C | 10.4
97 | Cc1ccnc(C)c1 | 6.77
98 | CCN(c1ccccc1)C(C)(C)C | 8.02
99 | Cc1cc(C)n(-c2ccccn2)n1 | 1.89
100 | CC[NH+](CC)CCCC(C)Nc1cc(C)nc2cc(Cl)ccc12 (configuration not stated) | 8.52
101 | CCCNc1ccccc1 | 5.12

Row | SMILES | pKa
102 | Cc1nc2cc(N)ccc2n1C | 7
103 | CCCCCCCP(=O)(CCCCCCC)CCCCCCC | 4.65
104 | [NH3+]c1cccc(-c2nc3ccccc3s2)c1 | 0.07
105 | CSc1ccc(N)cc1I | 3.44
106 | CC(C)(C)c1ccnc(C(C)(C)C)c1 | 6.7
107 | COc1ncnc2c1cnn2C | 2.51
108 | Oc1ccc2cccnc2c1 | 5.48
109 | NC(N)=S | -0.96
110 | C1CNCCNCCNC1 | 11.7
111 | N=C(c1ccccc1)c1ccccc1Cl | 5.59
112 | CN/C=[NH+]/c1cccc(-c2csc(N=C(N)N)n2)c1 | 6.29
113 | CCOC(=O)c1cnc(N(C)C)s1 | 2.77
114 | CC(N)CCc1ccc(O)cc1 (configuration not stated) | 9.14
115 | Cc1ccc(N(C)C)cc1 | 5.56
116 | NCCC[Se-] | 11.3
117 | OCc1cccnc1 | 5
118 | NCc1ccccc1O | 8.89
119 | OCCc1ccncc1 | 5.68
120 | CN1CC[C@]23c4c5ccc(O)c4O[C@H]2[C@@H](O)CC[C@H]3[C@H]1C5 | 8.94
121 | Nc1n[nH]c2ccccc12 | 3.15
122 | O=C([O-])c1ccc2sc(Cn3ccnc3)cc2c1 | 6.34
123 | CN(C)c1ccc2cc3ccc(N(C)C)cc3nc2c1 | 10.4
124 | CC(=O)CCN1CCOCC1 | 6.66
125 | Cn1ncc2c(NCc3ccco3)ncnc21 | 3.8
126 | C[n+]1cccnc1[O-] | 2.5
127 | NCCc1ccccc1 | 9.89

Row | SMILES | pKa
128 | CCc1cnccc1N | 9.17
129 | NCCc1cccnc1 | 9.44
130 | C1OC1CN(CC1CO1)CC1CO1 (configuration not stated) | 5.01
131 | CCCCCCCCCCN(CC(C)O)CC(C)O (configuration not stated) | 7.6
132 | [O-][n+]1cnc2[nH]cnc2c1NCc1ccccc1 | 2.66
133 | CCN(CC)CC(=O)Nc1c(C)cc(C)cc1C | 7.9
134 | [S-]c1ccncn1 | 6.7
135 | Nc1cc[nH]n1 | 4.11
136 | CCOC(=O)CN | 7.74
137 | C/N=C(/NC)N(C)C | 13.9
138 | CN(C)c1ccc(/C=N/c2ncc3[nH+]c[nH]c3n2)cc1 | 3.82
139 | Cc1ccnc([S-])n1 | 8
140 | NCCc1ccccn1 | 9.51
141 | CCCCOC(=O)c1ccc(N)cc1 | 2.47
142 | O=C([O-])c1ccc([N+](=O)[O-])c2cccnc12 | 4.67
143 | O=[N+]([O-])c1ccc(C2NCCS2)cc1 (configuration not stated) | 4.55
144 | CN(C)CCC/N=C(\c1ccccc1)c1ccccc1Cl | 9
145 | Cc1cc(-c2ncc[nH]2)n[nH]1 | 6.16
146 | NCC(=O)N1CCC[C@H]1C(=O)[O-] (H-Gly-Pro-OH) | 8.49
147 | Cc1ccc2nc3ccc(N)cc3nc2c1 | 4.8
148 | CSC(=N)c1ccccc1 | 5.84
149 | OC1(c2cc3ccccc3o2)CN2CCC1CC2 (configuration not stated) | 8.84
150 | Cc1ccc(N2CCCC(=O)C(O)CCC2)cc1 (configuration not stated) | 3.2
151 | CC1CCCN1C (configuration not stated) | 10.2
152 | Cc1cc(O)n(-c2ccccc2)n1 | 1.07
153 | CC[NH+](CC)CCNc1nc(N)nc(C)c1C | 7.9

Row | SMILES | pKa
154 | Nc1cccc2c1nnn2[C@@H]1C[C@@H](O)[C@H](CO)O1 | 1.9
155 | CC[C@]12CCC[NH+]3CC[C@@]4(c5cccc(OC)c5N[C@H]4CC1)[C@@H]32 | 2.7
156 | Nc1ccc(Cl)cc1Cl | 2.07
157 | NC1(C(=O)[O-])CCCCC1 | 10
158 | O=C(CN1CCOCC1)c1ccccc1 | 5.97
159 | Cn1/c(=N/N)ccc2ccccc21 | 9.17
160 | OCCCNc1ccccc1 | 4.53
161 | Cc1cc(N)nc2c1ccc1ccccc12 | 6.02
162 | CN(C)CCCC(=O)Oc1ccccc1 | 9.7
163 | CCOC(=O)N1CCN(C)CC1 | 7.31
164 | C1CN2C(=N1)N1CCN=C1N1CCN=C21 | 5.8
165 | C[n+]1c([S-])nc([O-])c2ccccc21 | 9.23
166 | CC(C)(N)C(C)(C)N | 10.1
167 | CCN(CC)CCSC1CCCCC1 | 8.11
168 | CN(C)c1cccc2ccccc12 | 4.83
169 | Cc1nc(C)c(C)[nH+]c1C | -2.73
170 | [NH3+]c1ccc(/C=N/NC(=O)c2ccncc2)cc1 | 3.2
171 | c1cnccn1 | 0.57
172 | N#Cc1ccccn1 | -0.26
173 | Brc1ccc2nc3c(c(N4CCOCC4)c2c1)CCC3 | 6.38
174 | Nc1ncnc2[nH]ncc12 | 4.59
175 | [O-]c1cnccn1 | 8.23
176 | CCOP(=O)(CN1CCOCC1)OCC | 4
177 | CN1CCCC1 | 10.6
